Measurements from PubChem BioAssay (NCI).
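The compound was tested at five concentrations on cells cultured in 96-well plates, with a 48-hour exposure period. The concentration for full growth arrest is given as TGI.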

What was measured:
Test in all cases: NCI tumour cell line growth inhibition, 48 h
HOP-92 NSCLC = tested on: HOP-92 NSCLC
OVCAR-3 ovarian = tested on: OVCAR-3 ovarian
CAKI-1 renal = tested on: CAKI-1 renal
K-562 leukemia = tested on: K-562 leukemia
SF-295 CNS = tested on: SF-295 CNS
NCI-H522 lung = tested on: NCI-H522 lung
OVCAR-8 ovarian = tested on: OVCAR-8 ovarian
ACHN renal = tested on: ACHN renal
A498 renal = tested on: A498 renal
MCF7 breast = tested on: MCF7 breast

| SMILES | TGI (HOP-92 NSCLC) [µM] | TGI (OVCAR-3 ovarian) [µM] | TGI (CAKI-1 renal) [µM] | TGI (K-562 leukemia) [µM] | TGI (SF-295 CNS) [µM] | TGI (NCI-H522 lung) [µM] | TGI (OVCAR-8 ovarian) [µM] | TGI (ACHN renal) [µM] | TGI (A498 renal) [µM] | TGI (MCF7 breast) [µM] |
| --- | --- | --- | --- | --- | --- | --- | --- | --- | --- | --- |
| O=C(c1cccnc1)N1N=C(c2ccccc2)CC1(O)c1cc(F)c(Cl)cc1Cl (centres undefined) | 59.5 | 24.5 | > 100 | 80.4 | 36.9 | > 100 | > 100 | 58.5 |  |  |
| CCCCCCCCCCCCCCCCCCNC(=S)/N=C/c1c(O)c2ccccc2[nH]c1=O | 32.7 | 37.8 | 31.6 |  | 47.9 |  | 29.6 | 30.9 | 36.9 | 48.3 |
| Cn1c2ccccc2c2cc(N3CCCC3)c3c(c21)C(=O)N(c1ccccc1)C3=O |  | > 100 |  | > 100 | > 100 | > 100 | > 100 | > 100 | > 100 | > 100 |
| Cc1nc2ccc(F)cc2c(Cl)c1CCCl | > 100 | > 100 |  | 68.2 | > 100 | 93.6 | > 100 | > 100 | > 100 | 90.1 |
| CN(C)CCNC(=O)c1cccc2nc3c(C(=O)NCCN(C)C)cccc3nc12 | 7.83 | 8.67 | > 100 | 12.5 | 6.46 | 1.81 | 4.67 | 22.3 | 4.61 |  |
| O=C(N/N=C\c1cccc2ccccc12)Nc1cccc2ccccc12 |  |  | 83.4 | 15.6 |  | > 100 | > 100 | > 100 | 51.3 | > 100 |
| O=C(c1cccs1)N1CCCN(C(=O)c2cccs2)C1=S |  | > 100 | > 100 | > 100 | > 100 |  | > 100 | > 100 | > 100 | > 100 |
| O=C(O)c1c2c(cc3c1CC1(Cc4cc5c(cc4C1=O)CCC5)C3)CCC2 (centres undefined) | > 100 | > 100 |  | > 100 | > 100 | > 100 | > 100 | > 100 | > 100 | > 100 |
| COC(=O)c1ccccc1/C=C1\Cc2ccc3c(c2C1=O)CCCC3 |  | > 100 | > 100 | > 100 | > 100 | > 100 | > 100 | > 100 | > 100 | > 100 |
| Cc1cc(S(=O)(=O)Nc2nncn2-c2ccc(Cl)cc2)c(S)cc1Cl |  | > 10 | > 10 | > 10 | > 10 | > 10 | > 10 | > 10 | > 10 | > 10 |
| C=CC(=O)N1C/C(=C\c2ccc([N+](=O)[O-])cc2)C(=O)/C(=C/c2ccc([N+](=O)[O-])cc2)C1 | 2.98 | 1.08 | 0.801 |  | 0.603 |  | 0.727 | 0.33 | 0.807 | 1.21 |
| COC1=C(C)C(=O)C2=C(C1=O)C1C3CC4=C(C(=O)C(OC)=C(C)C4=O)C(CNC(=O)C(C)O)N3C(C#N)C(C2)N1C (centres undefined) | < 0.01 | < 0.01 | 2 | 1.48 | 0.753 | < 0.01 | 1.32 | 0.359 |  | 2.25 |
| O=C(Nc1ccccc1Cl)c1ccc([N+](=O)[O-])cc1 |  | > 100 | > 100 | > 100 | > 100 | > 100 | > 100 |  | > 100 |  |
| COc1cc(C2C3=C(CCCC3=O)N(c3ccc(C)cc3)C3=C2C(=O)CCC3)c([N+](=O)[O-])cc1OC | > 100 | > 100 | > 100 | > 100 |  |  |  | > 100 | > 100 | > 100 |
| O=c1[nH]c2nccn2c2c1SCCN2 |  | > 100 | > 100 | > 100 | > 100 | > 100 | > 100 | > 100 | > 100 | > 100 |
| COC(=O)C1CCC(=O)N1C(c1cc(OC)c(OC)c(OC)c1)c1cccc2ccccc12 (centres undefined) | > 100 | > 100 |  | > 100 | > 100 | > 100 | > 100 | > 100 | > 100 | > 100 |
| CC(C)C(=O)/C=C/S/C=C/C(=O)C(C)C |  | 14.9 | 10.7 |  | > 100 | 3.62 | 6.48 | 5.27 |  | > 100 |
| CCOC(=O)C(=CNC(=S)N=Nc1c(O)[nH]c2ccccc12)C(=O)OCC | > 100 | > 100 | > 100 | > 100 | > 100 |  | > 100 | > 100 | > 100 | > 100 |
